Consider 3 molecules from US11752125B2, “Anti-neuroinflammatory and protective compounds in Achillea fragrantissima” (THE STATE OF ISRAEL MINISTRY OF AGRICULTURE & RURAL …, priority 2013, dated 2023).

Common to all, as to format: cell-based
Series [1] concerns CREB. Nature of the series: Aβ25-35-induced CREB phosphorylation in N2a cells (ELISA). The conditions noted are these: concomitant treatment 30 min. Here is the method:
7. Measure the amount of total and phosphorylated CREB in cell lysates of N2a cells, by ELISA using the PathScan total CREB sandwich ELISA kit (Cell Signaling TECHNOLOGY) or the PathScan phosoho-CREB (Ser133) sandwich ELISA kit (Cell Signaling TECHNOLOGY), respectively. 8. Determine the optical density at 450 nm using a microplate reader.
N2a cells were treated concomitantly with Aβ25-35 and TTF for 30 min. Cells were extracted and the levels of phosphorylated (FIG. 15 A) or total (FIG. 15 B) CREB were determined by specific ELISA kits. The results are the mean±SEM of one experiment (n=2).
N2a cells were treated concomitantly with Aβ25-35 and AcA for 30 min. Cells were extracted and the levels of phosphorylated CREB were determined by A specific ELISA kit. The results are the mean±SEM of one experiment (n=2).

For series [2], the system named is N2a neuronal cells. Briefly: Glutamate-induced neuronal cell death (LDH). The note with it: LDH 20 hr later. Here is the method:
Grow N2a cells in DMEM (high glucose, 225 ml), Opti-MEM (250 ml) containing 1% Fetal Bovine Serum, 2 mM L-Glutamine, 100 U/ml penicillin and 100 micrograms/mL streptomycin.
Treat N2a neuronal cells with AcA or TTF.
Two hr later add 100 micromolars of freshly diluted glutamate;
Incubate the culture for 20 hr (37° C., 5% CO2);
Measure cytotoxicity by the LDH method
N2a neuronal cells were treated with glutamate (100 μM) and TTF. Cytotoxicity was measured 20 hr later. The results are shown in FIG. 16 and are the mean±SEM of one experiment (n=8).
Achillolide A was added to N2a cells before (−2 h, −1 h) concomitant (0) or after (1 h, 2 h) the addition of glutamate. Cytotoxicity was measured 20 h later by the levels of LDH in the conditioned media. Results are means±SEM of two experiments (n=16). **P<0.01, ***P<0.001, compared to cells that were treated with glutamate only.
N2a neuronal cells were treated with Aβ25-35 (25 μM) and achillolide A. Cytotoxicity was measured 20 hr later. The results are the means±SEM of two different experiments (n=16).
N2a neuronal cells were treated with Aβ25-35 (25 μM) and achillolide A or memantine. Cytotoxicity was measured 20 hr later. The results are the mean±SEM of two different experiments (n=16) for AcA and one experiment (n=8) for memantine.

Series [3] relates to astrocytes. Briefly: Cellular antioxidant activity (ABAP peroxyl radicals) in astrocytes. The note with it: for effect on ABAP-generated peroxyl radical (ROS) fluorescence: astrocytes, ABAP 0.6 mM. The method, then:
In the cellular antioxidant activity (CAA) assay, cell viability was determined by a modification of the crystal violet assay (Kueng et al., 1989) as follows. At the end of cell treatments, cells were fixed with 150 μL of 5% (v/v) formaldehyde (in PBS) for 15 min at room temperature. Plates were washed by submersion in de-ionized water, dried and stained for 15 min with 150 μL of a 1% crystal violet solution. After careful aspiration of the crystal violet solution the plates were washed with de-ionized water, and dried prior to the solubilization of the bound dye with 150 μL of a 33% aqueous glacial acetic acid solution. The optical density of the plates was measured at 540 nm (with a 690 nm reference filter) in a microplate spectrophotometer.
Intracellular ROS production was detected using the non-fluorescent cell permeating compound, 2′7′-dichlorofluorescein diacetate (DCF-DA). DCF-DA is hydrolyzed by intracellular esterases and then oxidized by ROS to a fluorescent compound 2′-7′-DCF. Peroxyl radicals are generated by thermolysis of 2,2′-Azobis(amidinopropane) (ABAP) at physiological temperature. ABAP decomposes at approximately 1.36×10^−6s^−1 at 37° C., producing at most 1×10^12 radicals/mL/s (Bowry and Stocker, 1993; Niki et al., 1986; Thomas et al., 1997). Astrocytes (300,000 cells/well) were plated in DMEM containing 2% FBS, 8.4 mM HEPES, 2 mM glutamine, 100 U/mL penicillin and 100 μg/mL streptomycin, onto 24 well plates. In order to measure the ability of TTF to enter the cells and prevent the formation of dichlorofluorescein (DCF) by ABAP-generated peroxyl radicals, cells were incubated for 1 h with TTF. […] The fluorescence, which indicates ROS levels, was measured in a plate reader with excitation at 485 nm and emission at 520 nm.
2. […] Read “time 0” fluorescence (Ex: 485 nm and Em: 528 nm); 7. […] Read fluorescence at 3, 6, and 24 hr Ex: 485 nm and Em: 528 nm; 9. […]
Astrocytes were incubated with TTF or quercetin for 2 h. […] ABAP (0.6 mM) was added to the culture and the fluorescence intensity, representing ROS levels was measured. […]

With `C=C1CCC2=C(CO)C(=O)O[C@H]2/C=C(\C)[C@H](OC(C)=O)CC1=O` [achillolide A], the “effect on Aβ25-35-induced phosphorylation of CREB” value in series [1] was “down-regulates”. The “effect on glutamate-induced cytotoxicity” value in series [2] is given as “prevents the cytotoxic effect at nanomolar concentrations”.

For `COc1cc(-c2oc3cc(OC)c(OC)c(O)c3c(=O)c2O)ccc1O` [TTF, 3,5,4′-trihydroxy-6,7,3′-trimethoxyflavone], the “effect on ABAP-generated peroxyl radical (ROS) fluorescence” value in series [3] is listed as “moderated the increase in ROS-induced fluorescence”. In addition, the “cell viability in the cellular antioxidant activity assay” value in series [3] (crystal violet, 20 h after ABAP) is on record as “cell viability was not affected”. The “effect on Aβ25-35-induced phosphorylation of CREB” value in series [1] was “significantly inhibited”. The “effect on glutamate-induced cytotoxicity” value in series [2] was “prevents the cytotoxic effect at nanomolar concentrations”.

On to `O=c1c(O)c(-c2ccc(O)c(O)c2)oc2cc(O)cc(O)c12` [quercetin, 3,3′,4′,5,7-Pentahydroxyflavone, reference compound], for which the “effect on ABAP-generated peroxyl radical (ROS) fluorescence” value in series [3] is listed as “similarly effective as TTF”.
